Data taken from paper PMC6631349 (Xenobiotica; the fate of foreign compounds in biological …, 2014).

Assays:
[1] = target: T1, UGT1A3 (Homo sapiens, UniProt P35503); experiment: UGT1A3 supersomes-catalyzed 4-MU glucuronidation inhibition; details: 50 μM PC components; recombinant human UGT; mean of triplicate
T1 sequence (P35503 29-534): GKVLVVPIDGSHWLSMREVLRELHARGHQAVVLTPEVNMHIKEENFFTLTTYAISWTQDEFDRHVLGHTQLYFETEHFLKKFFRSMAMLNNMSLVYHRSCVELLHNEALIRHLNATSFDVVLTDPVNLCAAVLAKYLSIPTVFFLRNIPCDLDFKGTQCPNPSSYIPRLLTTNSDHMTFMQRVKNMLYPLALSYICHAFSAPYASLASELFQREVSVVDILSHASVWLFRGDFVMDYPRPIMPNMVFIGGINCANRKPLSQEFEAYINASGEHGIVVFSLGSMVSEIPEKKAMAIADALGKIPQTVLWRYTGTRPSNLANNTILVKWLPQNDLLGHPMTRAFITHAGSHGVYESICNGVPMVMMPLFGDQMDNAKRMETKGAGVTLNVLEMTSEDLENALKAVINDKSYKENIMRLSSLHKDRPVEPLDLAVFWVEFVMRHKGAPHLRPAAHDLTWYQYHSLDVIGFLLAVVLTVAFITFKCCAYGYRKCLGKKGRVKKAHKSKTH

[2] = target: T2, UGT1A8 (Homo sapiens, UniProt Q9HAW9); details: 50 μM PC components; recombinant human UGT; mean of triplicate
T2 sequence (Q9HAW9 26-530): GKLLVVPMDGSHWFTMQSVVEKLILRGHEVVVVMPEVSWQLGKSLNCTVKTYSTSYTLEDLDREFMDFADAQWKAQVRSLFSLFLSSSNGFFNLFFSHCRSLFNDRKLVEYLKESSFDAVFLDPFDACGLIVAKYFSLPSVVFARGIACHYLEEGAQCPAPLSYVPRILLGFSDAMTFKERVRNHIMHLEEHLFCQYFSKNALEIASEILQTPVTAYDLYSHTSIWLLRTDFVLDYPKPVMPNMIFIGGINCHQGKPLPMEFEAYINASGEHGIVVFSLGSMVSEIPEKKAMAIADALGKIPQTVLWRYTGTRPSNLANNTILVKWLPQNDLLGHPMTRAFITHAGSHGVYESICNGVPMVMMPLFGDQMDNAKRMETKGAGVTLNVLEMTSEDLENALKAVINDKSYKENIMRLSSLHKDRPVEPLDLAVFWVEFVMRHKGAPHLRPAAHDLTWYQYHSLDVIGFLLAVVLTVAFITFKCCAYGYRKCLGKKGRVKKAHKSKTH

[3] = target: T3, UGT1A9 (Homo sapiens, UniProt O60656); experiment: UGT1A9 supersomes-catalyzed 4-MU glucuronidation inhibition; details: for residual activity 1A9: 50 μM PC components, recombinant human UGT, mean of triplicate
T3 sequence (O60656 26-530): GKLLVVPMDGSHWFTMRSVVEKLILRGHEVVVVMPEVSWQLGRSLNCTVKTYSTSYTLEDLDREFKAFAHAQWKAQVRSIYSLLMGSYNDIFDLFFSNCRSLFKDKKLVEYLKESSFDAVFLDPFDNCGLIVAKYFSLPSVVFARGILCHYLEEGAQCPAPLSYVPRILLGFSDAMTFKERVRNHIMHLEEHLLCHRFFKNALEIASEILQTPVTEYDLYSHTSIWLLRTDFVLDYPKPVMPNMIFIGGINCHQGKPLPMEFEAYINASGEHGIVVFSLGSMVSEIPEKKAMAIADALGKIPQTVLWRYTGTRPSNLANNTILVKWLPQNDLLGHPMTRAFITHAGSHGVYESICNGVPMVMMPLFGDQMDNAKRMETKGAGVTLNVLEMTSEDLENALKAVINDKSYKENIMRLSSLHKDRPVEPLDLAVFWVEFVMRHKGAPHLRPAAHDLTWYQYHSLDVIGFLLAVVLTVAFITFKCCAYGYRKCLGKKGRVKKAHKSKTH

Row | Compound | residual activity 1A3 [1] [%] | residual activity 1A8 [2] [%] | inhibition percentage of UGT1A9 activity ([3]; 50 μM) [%] | residual activity 1A9 [3] [%]
1 | CCCCCCCCC(=O)OC[C@H](COP(=O)([O-])OCC[N+](C)(C)C)OC(=O)CCCCCCCC [PC 9:0, 9:0] | 117.7 | 33.2 | 89.3 | 10.7
2 | CCCCCCCCCC(=O)OC[C@H](COP(=O)([O-])OCC[N+](C)(C)C)OC(=O)CCCCCCCCC [PC 10:0, 10:0] | 107.4 | 59.3 | – | 158
3 | CCCCCCCCCCC(=O)OC[C@H](COP(=O)([O-])OCC[N+](C)(C)C)OC(=O)CCCCCCCCCC [PC 11:0, 11:0] | 110.7 | 116.8 | – | 97.8
4 | CCCCCCCCCCCC(=O)OC[C@H](COP(=O)([O-])OCC[N+](C)(C)C)OC(=O)CCCCCCCCCCC [PC 12:0, 12:0] | 93.0 | 114.1 | – | 84.1
5 | CCCCCCCCCCCCC(=O)OC[C@H](COP(=O)([O-])OCC[N+](C)(C)C)OC(=O)CCCCCCCCCCCC [PC 13:0, 13:0] | 110.7 | 114.3 | – | 99.2
6 | CCCCCCCCCCCCCC(=O)OC[C@H](COP(=O)([O-])OCC[N+](C)(C)C)OC(=O)CCCCCCCCCCCCC [PC 14:0, 14:0] | 97.3 | 110.2 | – | 86.3
7 | CCCCCCCCCCCCCCC(=O)OC[C@H](COP(=O)([O-])OCC[N+](C)(C)C)OC(=O)CCCCCCCCCCCCCC [PC 15:0, 15:0] | 103.4 | 105.9 | – | 64.7
8 | CCCCCCCCCCCCCCCC(=O)OC[C@H](COP(=O)([O-])OCC[N+](C)(C)C)OC(=O)CCCCCCCCCCCCCCC [PC 16:0, 16:0] | 92.6 | 107.6 | – | 67.5
9 | CCCCCCCCCCCCCCCCC(=O)OC[C@H](COP(=O)([O-])OCC[N+](C)(C)C)OC(=O)CCCCCCCCCCCCCCCC [PC 17:0, 17:0] | 81.4 | 92.1 | – | 65.7
10 | CCCCCCCCCCCCCCCCCC(=O)OC[C@H](COP(=O)([O-])OCC[N+](C)(C)C)OC(=O)CCCCCCCCCCCCCCCCC [PC 18:0, 18:0] | 83.7 | 84.1 | – | 67.7
11 | CC/C=C\C/C=C\C/C=C\C/C=C\C/C=C\C/C=C\CCC(=O)O[C@H](COC(=O)CCCCCCCCCCCCCCCCC)COP(=O)([O-])OCC[N+](C)(C)C [PC 18:0, 22:6, 1-stearoyl-2-docosahexaenoyl-sn-glycero-3-phosphocholine] | 90.0 | 116.1 | – | 94.4
12 | CCCCCCCCCCCCCCCCCCC(=O)OC[C@H](COP(=O)([O-])OCC[N+](C)(C)C)OC(=O)CCCCCCCCCCCCCCCCCC [PC 19:0, 19:0] | 75.9 | 60.6 | – | 42.3
13 | CCCCCCCCCCCCCCCCCCCC(=O)OC[C@H](COP(=O)([O-])OCC[N+](C)(C)C)OC(=O)CCCCCCCCCCCCCCCCCCC [PC 20:0, 20:0] | 90.8 | 94.9 | – | 65.6
14 | CCCCCCCCCCCCCCCCCCCCC(=O)OC[C@H](COP(=O)([O-])OCC[N+](C)(C)C)OC(=O)CCCCCCCCCCCCCCCCCCCC [PC 21:0, 21:0] | 88.2 | 36.9 | – | 38.1
15 | CCCCCCCCCCCCCCCCCCCCCC(=O)OC[C@H](COP(=O)([O-])OCC[N+](C)(C)C)OC(=O)CCCCCCCCCCCCCCCCCCCCC [PC 22:0, 22:0] | 92.1 | 38.0 | – | 43.9
16 | CCCCCCCCCCCCCCCCCCCCCCC(=O)OC[C@H](COP(=O)([O-])OCC[N+](C)(C)C)OC(=O)CCCCCCCCCCCCCCCCCCCCCC [PC 23:0, 23:0] | 80.4 | 93.5 | – | 77.3
